Activity calls are given as the source filed them. The rule behind the calls is not given here.
How the values were obtained:
Haemonchus contortus = assay: Nematocidal activity against Haemonchus contortus Haecon 5 strain isolated from helminth-free Merino weaner sheep at 12.5 to 100 uM after 6 days by larval development assay; format: functional, organism-based
[1] = Cytotoxicity against human A431 cells after 72 hrs by MTT assay; format: cell-based, A-431
[2] = Cytotoxicity against human SW480 cells after 72 hrs by MTT assay; format: cell-based
[3] = Cytotoxicity against human BE(2)-C cells after 72 hrs by MTT assay; format: cell-based
[4] = Cytotoxicity against human DU145 cells after 72 hrs by MTT assay; format: cell-based, DU-145
[5] = Cytotoxicity against human A2780 cells after 72 hrs by MTT assay; format: cell-based
[6] = Cytotoxicity against human H460 cells after 72 hrs by MTT assay; format: cell-based; settings: NCI-H460 cells
[7] = Cytotoxicity against human HT-29 cells after 72 hrs by MTT assay; format: cell-based
[8] = Cytotoxicity against human MCF7 cells after 72 hrs by MTT assay; format: cell-based
[9] = Cytotoxicity against human SJ-G2 cells after 72 hrs by MTT assay; format: cell-based

| Structure (SMILES) | inhibition (Haemonchus contortus) | GI50 at 72 h [1] | GI50 at 72 h [2] | GI50 at 72 h [3] | GI50 at 72 h [4] | GI50 at 72 h [5] | GI50 at 72 h [6] | GI50 at 72 h [7] | GI50 at 72 h [8] | GI50 at 72 h [9] |
| --- | --- | --- | --- | --- | --- | --- | --- | --- | --- | --- |
| CCCCCNC(=O)[C@@H]1N(CCCN(C)C)C(=O)C2=C(CCCC)[C@H]3C=C[C@]21O3 | inactive |  |  |  |  |  |  |  |  |  |
| CN(C)CCOc1ccc(N2C(=O)[C@@H]3[C@H](C2=O)[C@H]2CC[C@@H]3O2)cc1 |  | > 75 µM | > 75 µM | > 75 µM | > 75 µM | > 75 µM | > 75 µM | > 75 µM | > 75 µM | > 75 µM |
| O=C(O)CCCCCCCNC(=O)C1C(C(=O)O)[C@@H]2CC[C@H]1O2 (stereo partly drawn) | inactive | 10 µM | 10 µM | 10 µM | 10 µM | 10 µM | 10 µM | 10 µM | 10 µM | 10 µM |
| CCCCCCCCCCCCCCN1C(=O)[C@@H]2[C@H](C1=O)[C@H]1CC[C@@H]2O1 | inactive |  |  |  |  |  |  |  |  |  |
| O=C(O)C1C(C(=O)NCCCc2ccccc2)[C@H]2CC[C@@H]1O2 (stereo partly drawn) | inactive | 10 µM | 10 µM | 10 µM | 10 µM | 10 µM | 10 µM | 10 µM | 10 µM | 10 µM |
| CCCCCCCCN1C(=O)C2=C(C)[C@H]3C=C[C@@]2(O3)[C@@H]1C(=O)NCC(=O)OCC | inactive |  |  |  |  |  |  |  |  |  |
| CCc1ccccc1NC(=O)C1C(C(=O)O)[C@@H]2CC[C@H]1O2 (stereo partly drawn) | inactive | 10 µM | 10 µM | 10 µM | 10 µM | 10 µM | 10 µM | 10 µM | 10 µM | 10 µM |
| O=C(O)C1C(C(=O)Nc2ccc(O)cc2)[C@H]2CC[C@@H]1O2 (stereo partly drawn) | inactive | 10 µM | 10 µM | 10 µM | 10 µM | 10 µM | 10 µM | 10 µM | 10 µM | 10 µM |
| CCCNC(=O)C1C(C(=O)O)[C@@H]2CC[C@H]1O2 (stereo partly drawn) | inactive | 10 µM | 10 µM | 10 µM | 10 µM | 10 µM | 10 µM | 10 µM | 10 µM | 10 µM |
| O=C(O)C1C(C(=O)Nc2ccc(Br)cc2)[C@H]2CC[C@@H]1O2 (stereo partly drawn) | inactive | 10 µM | 10 µM | 10 µM | 10 µM | 10 µM | 10 µM | 10 µM | 10 µM | 10 µM |
| CCCCCNC(=O)[C@H]1N(CCCN(C)C)C(=O)C2=C(CCCC)[C@H]3C=C[C@]21O3 | inactive |  |  |  |  |  |  |  |  |  |
| Cc1cc(C)c(NC(=O)C2C(C(=O)O)[C@@H]3CC[C@H]2O3)c(C)c1 (stereo partly drawn) | inactive | 10 µM | 10 µM | 10 µM | 10 µM | 10 µM | 10 µM | 10 µM | 10 µM | 10 µM |
| CCCCCCCCCCCCCCCCCCN1C(=O)[C@@H]2[C@H](C1=O)[C@H]1CC[C@@H]2O1 | inactive |  |  |  |  |  |  |  |  |  |
| CCCCNC(=O)C1C(C(=O)O)[C@@H]2CC[C@H]1O2 (stereo partly drawn) | inactive | 10 µM | 10 µM | 10 µM | 10 µM | 10 µM | 10 µM | 10 µM | 10 µM | 10 µM |
| C/C(=N/Nc1ccccc1)c1ccccc1NC(=O)C1C(C(=O)O)[C@@H]2CC[C@H]1O2 (stereo partly drawn) | inactive | 10 µM | 10 µM | 10 µM | 10 µM | 10 µM | 10 µM | 10 µM | 10 µM | 10 µM |
| CN(C)CCOc1ccccc1N1C(=O)[C@@H]2[C@H](C1=O)[C@H]1CC[C@@H]2O1 |  | > 75 µM | > 75 µM | > 75 µM | > 75 µM | > 75 µM | > 75 µM | > 75 µM | > 75 µM | > 75 µM |
| C=CCNC(=O)C1C(C(=O)O)[C@@H]2CC[C@H]1O2 (stereo partly drawn) | inactive | 10 µM | 10 µM | 10 µM | 10 µM | 10 µM | 10 µM | 10 µM | 10 µM | 10 µM |

Reference: ChEMBL document CHEMBL1777719, “Norcantharidin analogues with nematocidal activity in Haemonchus contortus” (Bioorg Med Chem Lett, 2011)
